Laboratory results: US20120301551A1, “COMPOUNDS AND COMPOSITIONS FOR TREATING NEURONAL DEATH OR NEUROLOGICAL DYSFUNCTION” (Neurotech Pharmaceuticals Co., Ltd., priority 2005, published 2012)
pIC50: −log10 of the molar value.

Legend:
[1] = tested on: TNF-α; assay: LPS-induced TNF-α production in BV2 cells; type: cell-based; details: 100 uM; 1 ug/ml LPS, 4 hours
Procedure: (§1) Suppressing effects of chemical 01 in BV2 cell lines on production of IL-1β, IL-6 or TNF-α were evaluated. BV2 cells were exposed to 1 ug/ml LPS (inflammation-inducing material) with inclusion of chemical 01 at indicated doses. After 4 hours, supernatant were collected and concentrations of TNF-a were evaluated. In addition, BV2 cells were treated by the same method, and 24 hours later, supernatant were collected and concentrations of IL-1β and IL-6 were evaluated (mean±SEM, n=3). BV2 cells treated with LPS only were used as control.

[2] = hydroxyl radical scavenging in test tube; type: biochemical
Procedure: In addition, scavenging effects of superoxide and hydroxyl radical in test tube were evaluated. Hydroxyl radical scavenging activities of 0.1 uM, 1 uM and 10 uM of chemical 01 were 13.35%, 33.33% and 71.72%, respectively.

[3] = tested on: Tg2576 transgenic mice; assay: elevated plus maze in Tg2576 transgenic mice; type: in vivo, mouse; details: 25 mg/kg/day for 5 months (9~14 months)
Procedure: 14 month-old Tg2576 transgenic mice were fed chow alone, or containing 25 mg/kg/day of chemical 01, for 5 months (9˜14 months). After administration of 5 months, Elevated plus maze test was performed to evaluate the behavior improvement. Elevated plus maze has two open arms (30 cm×6 cm×0.5 cm) and two closed arms (30 cm×6 cm×15 cm), and also has 6 cm×6 cm of center platform. In Elevated plus maze test, mouse was carefully laid in the center with the head of the mouse toward open arm. The time that the mouse spent in the open arm was recorded for 5 minutes (mean±SEM, n=2).
14 month-old Tg2576 transgenic mice were fed chow alone (saline only), or containing 25 mg/kg/day of chemical—01, for 5 months (9˜14 month).
(§2) The anxiety function was analyzed by elevated plus maze test. The time spent in the open arm was recorded in the elevated plus maze.

[4] = single-dose toxicity test; details: mouse, in vivo; single dose
Procedure: Single-dose toxicity test of compounds showing good results in the above three efficacy tests were evaluated.

[5] = tested on: IL-1β; assay: LPS-induced IL-1β production in BV2 cells; type: cell-based
Procedure: as §1

[6] = tested on: G93A mouse; assay: microglia number and activation in G93A mouse (TOMATO Lectin); type: in vivo; details: 5 mg/kg/day or 20 mg/kg/day; lumbar ventral horn
Procedure: Number and activation degree of microglia (a marker of inflammation in brain disease animal model) expressed in the lumbar ventral horn of G93A mouse were evaluated with TOMATO Lectin dye. In G93A mouse, number of microglia was increased and microglia was more activated compared to the wild type mouse. Treatment with 5 mg/kg/day or 20 mg/kg/day of chemical 01 decreased the increase of number and activation degree of microglia (FIG. 13F).

[7] = tested on: APPswe/PS1deltaE9 double transgenic mice; assay: elevated plus maze in APPswe/PS1deltaE9 double transgenic mice; type: in vivo, mouse; details: 25 mg/kg/day for 14.5 months (3~17.5 months)
Procedure: After administration of 14.5 months, Elevated plus maze test was performed to evaluate the behavior improvement like example 10-3-2 (mean±SEM, n=3-5).
17.5 month-old APPswe/PS1deltaE9 double transgenic mice were fed chow alone (saline only), or containing 25 mg/kg/day of chemical—01, for […] (3˜17.5 month).
as §2

[8] = tested on: G93A mice; assay: inflammatory cytokine mRNA in lumbar segments of G93A mice (RT-PCR); type: in vivo, mouse; details: 16 week-old G93A mice, 5 mg/kg/day or 20 mg/kg/day in chow
Procedure: Lumbar segments of 16 week-old G93A mice fed with general chow only, and 16 week-old G93A mice fed with chow containing 5 mg/kg/day or 20 mg/kg/day of chemical 01 were extracted and their RNA were separated. The mRNA expression degrees of TNF-a and IL-16, cytokines inducing inflammation, were evaluated through RT-PCT.

[9] = tested on: G93A mouse; assay: motor performance, onset and survival in G93A mouse (chemical 01); type: in vivo
Procedure: G93A (Glycine Alanine) mouse having similar pathophysiological characteristics with ALS human patient was used to evaluate therapeutic effect of drug in ALS (amyotrophic lateral sclerosis), one of main degenerative brain diseases. It was analyzed whether treatment with 5 mg/kg/day or 20 mg/kg/day of chemical 01 improved motor performance ability or not.
In PaGE test and Rotarod test, onset and mortality were analyzed for four mice per each group (FIGS. 13C-D). […] In survival ability, G93A mouse fed with chow only, G93A mouse treated with 5 mg/kg/day of chemical 01 and G93A mouse treated with 20 mg/kg/day of chemical 01 survived for 131.57 days, 153.13 days, and 150.73 days, respectively. Treatment with chemical 01 extended survival rate of G93A mouse (FIG. 13D).

[10] = tested on: Tg2576 transgenic mice; assay: brain Aβ42/Aβ40 levels in Tg2576 transgenic mice (ELISA); type: in vivo, mouse; details: 25 mg/kg/d for 8 months (9~17 months)
Procedure: 17 month-old Tg2576 transgenic mice were fed chow alone, or containing 25 mg/kg/day of chemical 01, for 8 months before being sacrificed (9˜17 months). The level of Aβ42 or Aβ40 protein was quantitatively analyzed by colorimetric sandwich ELISA kit (BIOSOURCE, Camarillo, Calif.) (mean±SEM, n=2).
17 month-old Tg2576 transgenic mice were fed chow alone (saline only), or containing 25 mg/kg/day of chemical—01, for 8 months before being sacrificed (9˜17 month). SDS-soluble/insoluble Aβ42 or Aβ40 levels were analyzed by colorimetric sandwich ELISA kit (BIOSOURCE, Camarillo, Calif.).

Compound: O=C(O)c1cc(NCCc2ccc(C(F)(F)F)cc2)ccc1O [chemical 01, 2-Hydroxy-5-[2-(4-trifluoromethyl-phenyl)-ethylamino]-benzoic acid]
- decrease of TNF-α released into media [1]: ~70%
- pIC50 [2]: 6.01
- hydroxyl radical scavenging activity ([2]; 0.1 uM): 13.35%
- hydroxyl radical scavenging activity ([2]; 1 uM): 33.33%
- hydroxyl radical scavenging activity ([2]; 10 uM): 71.72%
- time spent in the open arm [3]: decreased the time
- time spent in the open arm ([3]; listed as chemical—01): spent less time
- LD50 [4]: > 3000 mg/kg
- decrease of IL-1β released into media ([5]; 100 uM, 1 ug/ml LPS, 24 hours): about 80%
- IL-1β decrease, in words ([5]; 1~100 uM): dose-dependent manner
- increase of number and activation degree of microglia [6]: decreased
- time spent in the open arm [7]: decreased the time
- time spent in the open arm ([7]; listed as chemical—01): spent less time
- mRNA expression of TNF-a and IL-16, cytokines inducing inflammation [8]: effectively reduced
- survival ([9]; 5 mg/kg/day): 153.13 days
- onset ([9]; 5 mg/kg/day or 20 mg/kg/day): 125.67 days
- survival ([9]; 20 mg/kg/day): 150.73 days
- motor performance versus control fed with general chow only (Rotarod, PaGE) ([9]; 5 or 20 mg/kg/day in chow, from 14 weeks to 17 weeks): better motor performance
- SDS-soluble/insoluble Aβ42 and Aβ40 levels, in words [10]: decreased
- SDS-soluble/insoluble Aβ42 and Aβ40 levels, in words ([10]; listed as chemical—01): reduced
